{"source": "patent US7553105B1", "about": "“Method and compositions for treatment of subsurface contaminants” (Colorado School of Mines, priority 2005, dated 2009)", "key": {"[1]": {"assay": "Batch screening for compatibility of surfactants/cosolvents with KMnO4", "conditions": "for effect of surfactant concentration on compatibility with permanganate: FIG. 1", "method": "Seventy two surfactants were tested alone or in the presence of cosolvents to determine compatibility with KMnO4. Concentrations for each constituent corresponded to one of two remediation scenarios: (1) a relatively high wt-% of surfactants, i.e., 1-10 wt-%, is coupled with oxidants representative of conditions where a surfactant flush is conducted and followed by one or more water flushes, with high levels of surfactant remaining when the oxidant is introduced (note that this scenario could also represent co-injection of surfactant and oxidant); and (2) a relatively low wt-% of surfactant, i.e., 0.01-0.1 wt-%, is coupled with oxidants representative of conditions where a surfactant flush is conducted by water flush with low levels of surfactant remaining when the oxidant is introduced.\nThe two cases are representative of the range of possible concentrations that may be encountered during pre- and post-remedial agent flushing scenarios. […] Potassium permanganate concentrations of 500 mg/L to 5,000 mg/L were used in the screening tests, these concentrations being representative for both laboratory conditions and field applications.\nSolutions containing surfactant alone, cosolvent alone, or mixtures of surfactant and cosolvent were used in the batch screening studies. Qualitative and quantitative criteria were used to define a compatible coupling. For example, a bright purple color provides a visual qualitative assessment regarding oxidant consumption, therefore solutions that remained bright purple with relatively few manganese dioxide solids generated throughout the 24-hour reaction period were deemed compatible.\nThe batch screening samples were prepared in 40 ml type A borosilicate glass vials with Teflon®-lined septa. The desired surfactant concentration (corrected for active weight percent) was weighed and dispensed into each sample vial. Thirty milliliters of a 5,000 mg/L KMnO4 solution prepared with de-ionized water was dispensed into each vial. If cosolvent was present, the desired weight percent was added to the vial on a vol/vol basis. The total sample volume was 30-ml, leaving 10-ml of headspace in the event of gas or foam generation. The vials were shaken until the solutions were well mixed.\nVisual observation on each vial was made at three, twenty-four and forty-eight hours. The amount of oxidant remaining in the surfactant, or surfactant/cosolvent, solution was determined with a Hach DR/4000 Ultraviolet Spectrophotometer (UV Spec.). A 0.1 ml aliquot of sample was filtered with a 10-micron filter and dispensed into a 10-ml vial, followed by addition of 9.9 mLs of de-ionized water. The resultant solution has a permanganate dilution of less than 50 mg/L (ideal absorbance measurement range). Samples were analyzed at 525 nm for KMnO4 with final concentrations derived from a 6-point standard calibration curve."}, "[2]": {"conditions": "maximum contaminant level, USEPA; cited from earlier work"}, "[3]": {"conditions": "25° C.; cited from earlier work"}, "[4]": {"assay": "Solubility of PCE in surfactants, co-surfactants and electrolytes versus water alone", "type": "physicochemical", "description": "Co-surfactants and electrolytes serve to further enhance the solubilization capacity of any given surfactant.\nTherefore use of equilibrium values in the prediction of surfactant enhanced remediation performance may result in the underestimation of remediation times and costs.\nPCE concentrations were determined using a Hewlett-Packard gas chromatograph (GC) equipped with auto-ampler and electron capture detector (ECD)."}, "[5]": {"assay": "Solubility in water 20° C.", "type": "physicochemical", "conditions": "measured for this study"}, "[6]": {"assay": "Example 3 batch compatibility of cosolvents and surfactants with permanganate", "conditions": "5,000 mg/L KMnO4; 24-48 hr observation", "method": "Batch studies were performed to evaluate the compatibility of alcohol cosolvents and surfactants for use with oxidants during treatment of DNAPLs."}, "[7]": {"conditions": "vendor data, cited from earlier work"}, "[8]": {"conditions": "literature; cited from earlier work"}, "[9]": {"assay": "Interfacial tension, DuNuoy ring tensiometer", "conditions": "3.5 wt % Dowfax 8390 solution equilibrated with PCE, average of five measurements"}, "[10]": {"assay": "Density of 3.5 wt % Dowfax 8390 solution", "conditions": "3.5 wt % solution, 23° C., average of five measurements"}, "[11]": {"assay": "Batch surfactant sorption experiments", "type": "physicochemical", "conditions": "medium-grained laboratory sand", "source_text": "Adsorption isotherms of ionic surfactants onto charged sites are typically approximated using a Langmuir model (Rosen, 1989)."}, "[12]": {"conditions": "3-hour observation, 3.5 wt % surfactant + 5000 mg/L KMnO4"}, "[13]": {"conditions": "24-hour observation, 3.5 wt % surfactant + 5000 mg/L KMnO4"}, "[14]": {"conditions": "MnO4^− loss, 3-hour observation, 3.5 wt % surfactant + 5000 mg/L KMnO4"}, "[15]": {"conditions": "MnO4^− loss, 24-hour observation, 3.5 wt % surfactant + 5000 mg/L KMnO4"}}, "note": "Where “and” joins values, the source holds several entries; their conditions need not be identical. Equal entries are not always repeated. Where two headings read alike, the source gives them in different places. Marks after values point to notes of the source that are not given here."}
{"molecule": "CC(C)=O", "note": "[Acetone]", "values": [{"measurement": "% mass loss", "setting": "[1]", "value": 98, "unit": "%"}]}
{"molecule": "c1ccccc1", "note": "[Benzene]", "values": [{"measurement": "MCL", "setting": "[2]", "value": 0.005, "unit": "mg/L"}]}
{"molecule": "Clc1ccccc1", "note": "[Chlorobenzene]", "values": [{"measurement": "Solubility in water", "setting": "[3]", "value": 472, "unit": "µg/mL"}]}
{"molecule": "Clc1cc2c(cc1Cl)Oc1cc(Cl)c(Cl)cc1O2", "note": "[Dioxin (2,3,7,8-TCDD), 2,3,7,8-TCDD]", "values": [{"measurement": "MCL", "setting": "[2]", "value": "3e-08", "unit": "mg/L"}, {"measurement": "Solubility in water", "setting": "[3]", "value": "1.9e-09", "unit": "µg/mL"}]}
{"molecule": "CCc1ccccc1", "note": "[Ethylbenzene]", "values": [{"measurement": "MCL", "setting": "[2]", "value": 0.7, "unit": "mg/L"}, {"measurement": "Solubility in water", "setting": "[3]", "value": 152, "unit": "µg/mL"}]}
{"molecule": "Cl[C@H]1[C@H](Cl)[C@@H](Cl)[C@@H](Cl)[C@H](Cl)[C@H]1Cl", "note": "[Lindane (herbicide), Lindane]", "values": [{"measurement": "Solubility in water", "setting": "[3]", "value": 7.3, "unit": "µg/mL"}]}
{"molecule": "c1ccc2ccccc2c1", "note": "[Napthalene (PAH), Napthalene]", "values": [{"measurement": "MCL", "setting": "[2]", "value": 0.0002, "unit": "mg/L"}, {"measurement": "Solubility in water", "setting": "[3]", "value": 33, "unit": "µg/mL"}]}
{"molecule": "ClC(Cl)=C(Cl)Cl", "note": "[PCE, tetrachloroethene]", "values": [{"measurement": "5% Dowfax + 3% AOT: PCE", "setting": "[4]; in 5% Dowfax + 3% AOT", "value": "31,954 mg/L"}, {"measurement": "5% Dowfax + 3% AOT + 3% NaBr: PCE", "setting": "[4]; in 5% Dowfax + 3% AOT + 3% NaBr", "value": "107,284 mg/L"}, {"measurement": "5% SDS + 3% AOT: PCE", "setting": "[4]; in 5% SDS + 3% AOT", "value": "21,410 mg/L"}, {"measurement": "5% SDS + 3% AOT + 3% NaBr: PCE", "setting": "[4]; in 5% SDS + 3% AOT + 3% NaBr", "value": "62,700 mg/L"}, {"measurement": "PCE in water only", "setting": "[4]; water only", "value": 200, "unit": "mg/L"}, {"measurement": "MCL", "setting": "[2]", "value": 0.005, "unit": "mg/L"}, {"measurement": "solubility", "setting": "[5]", "value": 250, "unit": "µg/mL"}]}
{"molecule": "c1ccc2c(c1)ccc1ccccc12", "note": "[Phenanthrene (PAH), Phenanthrene]", "values": [{"measurement": "MCL", "setting": "[2]", "value": 0.0002, "unit": "mg/L"}, {"measurement": "Solubility in water", "setting": "[3]", "value": 6.2, "unit": "µg/mL"}]}
{"molecule": "CCCCCCCCCCCCc1ccc(S(=O)(=O)O)cc1", "note": "[SDBS]", "values": [{"measurement": "Average MnO4^−", "setting": "[1]; [12]", "value": 3442, "unit": "mg/L"}, {"measurement": "Average MnO4^−", "setting": "[1]; [13]", "value": 1896, "unit": "mg/L"}, {"measurement": "% mass loss", "setting": "[1]; [14]", "value": 29, "unit": "%"}, {"measurement": "% mass loss", "setting": "[1]; [15]", "value": 61, "unit": "%"}]}
{"molecule": "CCCCCCCCCCCCOS(=O)(=O)[O-].[Na+]", "note": "[SDS, sodium dodecyl sulfate]", "values": [{"measurement": "compatibility with permanganate", "setting": "[1]", "value": "compatible with permanganate"}, {"measurement": "Average MnO4^−", "setting": "[1]; [12]", "value": 4523, "unit": "mg/L"}, {"measurement": "Average MnO4^−", "setting": "[1]; [13]", "value": 4393, "unit": "mg/L"}, {"measurement": "% mass loss", "setting": "[1]; [14]", "value": 6, "unit": "%"}, {"measurement": "% mass loss", "setting": "[1]; [15]", "value": 20, "unit": "%"}]}
{"molecule": "ClC=C(Cl)Cl", "note": "[Trichloroethene, trichloroethene]", "values": [{"measurement": "MCL", "setting": "[2]", "value": 0.005, "unit": "mg/L"}]}
{"molecule": "CCCCCCCC/C=C\\CCCCCCCC(=O)OCCOCC(OCCO)C1OCC(OCCO)C1OCCO", "note": "(centres unmarked) [Tween 80, polyoxyethylene (20) sorbitan monooleate]", "values": [{"measurement": "effect of surfactant concentration on compatibility with permanganate", "setting": "[1]", "value": "only compatible at low residual levels with permanganate"}, {"measurement": "% mass loss", "setting": "[1]; [14]", "value": 100, "unit": "%"}, {"measurement": "% mass loss", "setting": "[1]; [15]", "value": 100, "unit": "%"}]}
{"molecule": "CCCCCCCCCC", "note": "[n-Decane]", "values": [{"measurement": "Solubility in water", "setting": "[3]", "value": 0.053, "unit": "µg/mL"}]}
{"molecule": "CCCCCCCC", "note": "[n-Octane]", "values": [{"measurement": "Solubility in water", "setting": "[3]", "value": 0.72, "unit": "µg/mL"}]}
{"molecule": "Cc1ccccc1C", "note": "[o-Xylene]", "values": [{"measurement": "Solubility in water", "setting": "[3]", "value": 175, "unit": "µg/mL"}]}
{"molecule": "Cc1ccc(C)cc1", "note": "[p-Xylene]", "values": [{"measurement": "MCL", "setting": "[2]", "value": 10, "unit": "mg/L"}, {"measurement": "Solubility in water", "setting": "[3]", "value": 210, "unit": "µg/mL"}]}
{"molecule": "CC(C)(C)O", "note": "[tert-butanol]", "values": [{"measurement": "Relative Amount of MnO2 Solids Generated", "setting": "[6]", "value": "None"}, {"measurement": "Solution Color", "setting": "[6]", "value": "Dark"}, {"measurement": "% mass loss", "setting": "[1]", "value": "2% and 4%"}, {"measurement": "Average MnO4^−", "setting": "[1]", "value": "5075 mg/L and 4986 mg/L"}]}
{"molecule": "(C16 linear) Sodium diphenyl oxide sulfonate [Calfax 16L-35]", "values": [{"measurement": "Average MnO4^−", "setting": "[1]; [12]", "value": 4340, "unit": "mg/L"}, {"measurement": "Average MnO4^−", "setting": "[1]; [13]", "value": 4183, "unit": "mg/L"}, {"measurement": "% mass loss", "setting": "[1]; [14]", "value": 14, "unit": "%"}, {"measurement": "% mass loss", "setting": "[1]; [15]", "value": 15, "unit": "%"}]}
{"molecule": "Sodium hexadecyl diphenyl oxide disulfonate [Dowfax 8390]", "values": [{"measurement": "CMC", "setting": "[7]; critical micelle concentration", "value": 140, "unit": "mg/L"}, {"measurement": "HLB", "setting": "[7]", "value": 78.6}, {"measurement": "Relative Amount of MnO2 Solids Generated", "setting": "[6]", "value": "Few"}, {"measurement": "Solution Color", "setting": "[6]", "value": "Dark"}, {"measurement": "compatibility with permanganate", "setting": "[1]", "value": "compatible with permanganate"}, {"measurement": "Average MnO4^−", "setting": "[1]; [12]", "value": 4458, "unit": "mg/L"}, {"measurement": "Average MnO4^−", "setting": "[1]; [13]", "value": 3980, "unit": "mg/L"}, {"measurement": "effect of surfactant concentration on compatibility with permanganate", "setting": "[1]", "value": "not dependent on surfactant concentration"}, {"measurement": "% mass loss", "setting": "[1]; [14]", "value": 10, "unit": "%"}, {"measurement": "% mass loss", "setting": "[1]; [15]", "value": 23, "unit": "%"}, {"measurement": "sorption to aquifer materials", "setting": "[8]", "value": "low sorption to aquifer materials"}, {"measurement": "Interfacial Tension", "setting": "[9]", "value": "8.5^c dyne/cm"}, {"measurement": "Density", "setting": "[10]", "value": "1.007^c g/cm^3"}, {"measurement": "sorption to laboratory sand", "setting": "[11]", "value": "negligible"}]}
